Assay results: publication PMC2782546 (Chemical biology & drug design, 2009)
Read-outs that look alike come from different tables or passages of the source. Values belong to the compound of their own block, whether it stands above or below them. The star is where a group is joined. Lys(Fam) = Lys(Fam): lysine whose ε-amino group carries Fam (fluorescein), added using fluorescein-5-isothiocyanate; Dnp = O=[N+]([O-])c1ccc(*)c([N+](=O)[O-])c1; Mca = COc1ccc2c(CC(=O)*)cc(=O)oc2c1

Legend:
ADAMTS-4 [1] = conditions: ADAMTS-4 aggrecanase activity; cited from earlier work
ADAMTS-1 = ADAMTS-1 aggrecanase activity; cited from earlier work
MMP-2 [2] = molecular target: T1, MMP-2 (Homo sapiens, UniProt P08253); conditions: cited from earlier work
T1 sequence (P08253 110-660): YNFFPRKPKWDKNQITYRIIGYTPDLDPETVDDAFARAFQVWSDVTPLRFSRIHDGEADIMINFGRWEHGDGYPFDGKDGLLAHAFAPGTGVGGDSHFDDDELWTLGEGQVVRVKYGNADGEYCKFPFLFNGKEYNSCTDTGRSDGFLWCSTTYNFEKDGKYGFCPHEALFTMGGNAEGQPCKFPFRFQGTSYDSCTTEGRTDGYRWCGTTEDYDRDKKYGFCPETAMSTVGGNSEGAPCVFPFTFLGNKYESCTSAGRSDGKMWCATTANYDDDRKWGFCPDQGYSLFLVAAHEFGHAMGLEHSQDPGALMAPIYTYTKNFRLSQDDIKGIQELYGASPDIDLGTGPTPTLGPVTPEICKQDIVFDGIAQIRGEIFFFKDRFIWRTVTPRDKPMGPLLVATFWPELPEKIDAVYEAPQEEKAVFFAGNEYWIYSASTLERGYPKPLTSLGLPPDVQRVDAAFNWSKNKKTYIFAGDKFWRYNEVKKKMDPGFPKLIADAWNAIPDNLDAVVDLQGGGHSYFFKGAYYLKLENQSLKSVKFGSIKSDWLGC

MMP-7 = conditions: cited from earlier work
MMP-9 [3] = molecular target: T2, MMP-9 (Homo sapiens, UniProt P14780); conditions: cited from earlier work
T2 sequence (P14780 94-707, species assumed): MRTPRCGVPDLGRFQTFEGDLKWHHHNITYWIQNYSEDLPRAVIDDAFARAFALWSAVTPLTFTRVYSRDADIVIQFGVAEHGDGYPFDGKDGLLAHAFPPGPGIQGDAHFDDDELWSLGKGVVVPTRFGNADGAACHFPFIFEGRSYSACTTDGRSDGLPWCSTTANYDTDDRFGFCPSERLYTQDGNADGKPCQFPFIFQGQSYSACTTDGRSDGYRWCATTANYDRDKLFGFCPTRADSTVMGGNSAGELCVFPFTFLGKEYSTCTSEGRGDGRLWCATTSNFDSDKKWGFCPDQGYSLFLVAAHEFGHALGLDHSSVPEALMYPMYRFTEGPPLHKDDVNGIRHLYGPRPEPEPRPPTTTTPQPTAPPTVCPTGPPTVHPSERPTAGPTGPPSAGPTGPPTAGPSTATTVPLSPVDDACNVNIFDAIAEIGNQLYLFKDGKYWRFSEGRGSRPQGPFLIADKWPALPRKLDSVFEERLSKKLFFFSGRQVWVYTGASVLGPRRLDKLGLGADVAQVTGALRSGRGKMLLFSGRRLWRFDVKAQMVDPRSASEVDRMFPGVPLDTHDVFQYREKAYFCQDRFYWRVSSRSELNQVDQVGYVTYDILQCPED

MT1-MMP = conditions: cited from earlier work
MMP-1 [4] = conditions: MMP-1, inhibitor concentration 50 μM; cited from earlier work
MMP-13 = conditions: MMP-13, inhibitor concentration 50 μM; cited from earlier work
ADAM-10 = conditions: ADAM-10, inhibitor concentration 50 μM; cited from earlier work
ADAMTS-5 [5] = molecular target: T3, ADAMTS-5 (Homo sapiens, UniProt Q9UNA0); experiment: ADAMTS-5 inhibition, RP-HPLC analysis of cleavage products; type: biochemical; conditions: ADAMTS-5, data not shown
T3 sequence (Q9UNA0 262-731 limits assumed): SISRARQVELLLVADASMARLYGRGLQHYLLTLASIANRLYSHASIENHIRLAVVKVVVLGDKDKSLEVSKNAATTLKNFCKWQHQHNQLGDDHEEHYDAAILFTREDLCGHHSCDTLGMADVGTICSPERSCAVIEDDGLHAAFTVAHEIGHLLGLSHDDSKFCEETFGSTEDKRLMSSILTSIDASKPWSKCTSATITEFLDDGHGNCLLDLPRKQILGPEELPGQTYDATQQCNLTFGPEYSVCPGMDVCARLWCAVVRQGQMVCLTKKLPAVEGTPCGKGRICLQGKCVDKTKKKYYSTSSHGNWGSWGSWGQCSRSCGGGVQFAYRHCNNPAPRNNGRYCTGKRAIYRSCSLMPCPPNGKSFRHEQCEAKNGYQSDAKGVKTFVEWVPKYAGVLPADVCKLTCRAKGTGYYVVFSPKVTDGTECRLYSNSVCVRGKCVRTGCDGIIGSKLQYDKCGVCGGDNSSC

MMP-2 [6] = molecular target: T1, MMP-2; experiment: MMP-2 inhibition assay with FRET substrates; type: biochemical
ADAMTS-4 (aggrecanase-1) [7] = molecular target: T4, ADAMTS-4 (aggrecanase-1) (Homo sapiens, UniProt O75173); experiment: ADAMTS-4 inhibition assay, FRET substrate hydrolysis; type: biochemical
T4 sequence (O75173 213-685 limits assumed): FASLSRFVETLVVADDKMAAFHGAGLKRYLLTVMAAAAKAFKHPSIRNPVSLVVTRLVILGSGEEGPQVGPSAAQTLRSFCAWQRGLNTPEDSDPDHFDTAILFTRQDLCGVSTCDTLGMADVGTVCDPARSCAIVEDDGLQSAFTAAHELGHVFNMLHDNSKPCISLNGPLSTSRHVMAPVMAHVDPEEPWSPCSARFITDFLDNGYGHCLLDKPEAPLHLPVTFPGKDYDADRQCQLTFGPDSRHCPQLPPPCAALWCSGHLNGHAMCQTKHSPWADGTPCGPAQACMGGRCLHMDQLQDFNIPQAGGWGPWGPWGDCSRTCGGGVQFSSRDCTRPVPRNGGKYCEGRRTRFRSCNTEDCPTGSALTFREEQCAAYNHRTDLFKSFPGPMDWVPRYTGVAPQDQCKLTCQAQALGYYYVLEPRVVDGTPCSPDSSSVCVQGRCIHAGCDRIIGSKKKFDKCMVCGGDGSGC

ADAMTS-4 (aggrecanase-1) [8] = molecular target: T4, ADAMTS-4 (aggrecanase-1); experiment: ADAMTS-4 inhibition, RP-HPLC analysis of cleavage products
ADAMTS-5 [9] = molecular target: T3, ADAMTS-5; experiment: ADAMTS-5 inhibition assay, FRET substrate hydrolysis; type: biochemical
MMP-8 [10] = molecular target: T5, MMP-8 (Homo sapiens, UniProt P22894); experiment: MMP-8 inhibition assay with FRET substrates; type: biochemical
T5 sequence (P22894 101-467, species assumed): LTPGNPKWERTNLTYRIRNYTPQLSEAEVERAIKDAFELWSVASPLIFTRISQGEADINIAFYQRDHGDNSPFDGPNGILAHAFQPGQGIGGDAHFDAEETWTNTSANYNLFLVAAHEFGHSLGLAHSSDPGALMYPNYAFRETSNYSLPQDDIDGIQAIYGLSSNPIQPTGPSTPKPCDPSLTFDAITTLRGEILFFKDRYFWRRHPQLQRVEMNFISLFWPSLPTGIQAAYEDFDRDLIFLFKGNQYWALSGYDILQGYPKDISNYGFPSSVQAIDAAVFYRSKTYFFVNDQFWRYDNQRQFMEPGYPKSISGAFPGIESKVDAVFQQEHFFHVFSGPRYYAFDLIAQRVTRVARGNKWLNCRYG

MMP-9 [11] = molecular target: T2, MMP-9; experiment: MMP-9 inhibition assay with FRET substrates; type: biochemical; conditions: MMP-9, substrate fMMPSlong
MMP-12 [12] = molecular target: T6, MMP-12 (Homo sapiens, UniProt P39900); experiment: MMP-12 inhibition assay with FRET substrates; type: biochemical; conditions: MMP-12, substrate fMMPSshort
T6 sequence (P39900 106-470, species assumed): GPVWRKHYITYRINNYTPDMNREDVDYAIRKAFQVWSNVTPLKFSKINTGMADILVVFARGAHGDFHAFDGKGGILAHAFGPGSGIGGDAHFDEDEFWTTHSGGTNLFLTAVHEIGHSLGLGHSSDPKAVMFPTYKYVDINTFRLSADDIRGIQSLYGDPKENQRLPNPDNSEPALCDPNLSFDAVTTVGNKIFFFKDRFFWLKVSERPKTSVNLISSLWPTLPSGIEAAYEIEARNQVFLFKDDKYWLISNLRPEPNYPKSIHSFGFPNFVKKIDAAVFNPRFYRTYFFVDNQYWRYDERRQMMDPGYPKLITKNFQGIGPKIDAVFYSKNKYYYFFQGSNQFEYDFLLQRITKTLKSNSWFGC

MMP-2 [13] = molecular target: T1, MMP-2; conditions: cited from earlier work; remark: listed apart in the source
MMP-1 [14] = conditions: cited from earlier work
MMP-9 [15] = molecular target: T2, MMP-9; conditions: cited from earlier work; remark: listed apart in the source
MMP-8 [16] = molecular target: T5, MMP-8; conditions: read-out: KM value for MMP hydrolysis; cited from earlier work
MMP-2 [17] = molecular target: T1, MMP-2; conditions: read-out: KM value for MMP hydrolysis; cited from earlier work
ADAMTS-4 [18] = conditions: read-out: KM value for ADAMTS-4 hydrolysis; substrate kinetics; cited from earlier work
MMP-9 [19] = molecular target: T2, MMP-9; conditions: read-out: KM value for MMP hydrolysis; cited from earlier work
MMP-12 [20] = molecular target: T6, MMP-12; conditions: read-out: KM value for MMP hydrolysis; cited from earlier work

Compound: O=C(O[C@@H]1Cc2c(O)cc(O)cc2O[C@@H]1c1cc(O)c(O)c(O)c1)c1cc(O)c(O)c(O)c1 [Compound 1, (−)-epigallocatechin gallate]
IC50 (ADAMTS-4 [1]): 0.1 to 0.15 µM
IC50 (ADAMTS-1): 0.2 to 0.25 µM
IC50 (MMP-2 [2]; MMP-2): 6 to 8 µM
IC50 (MMP-7): 1.6 µM
IC50 (MMP-9 [3]; MMP-9): 0.8 to 13 µM
IC50 (MT1-MMP): 0.019 µM
inhibition (MMP-1 [4]): 14–30%
inhibition (MMP-13): 14–30%
inhibition (ADAM-10): 14–30%

Compound: O=C(O[C@@H]1Cc2c(O)cc(O)cc2O[C@@H]1c1ccc(O)c(O)c1)c1cc(O)c(O)c(O)c1 [Compound 2, (−)-epicatechin gallate]
IC50 (ADAMTS-4 [1]): 0.1 to 0.15 µM
IC50 (ADAMTS-1): 0.2 to 0.25 µM
inhibition (MMP-1 [4]): 14–30%
inhibition (MMP-13): 14–30%
inhibition (ADAM-10): 14–30%

inhibition of substrate hydrolysis by RP-HPLC analysis (ADAMTS-5 [5]): inhibited
Ki (MMP-2 [6]; MMP-2, substrate fMMPSlong): 10 ± 0.89 µM
Ki (MMP-2 [6]; MMP-2, substrate fMMPSshort): 12.2 ± 1.82 µM
Compound: Oc1cc(O)cc(/C=C/c2ccc(O)c(O)c2)c1 [Compound 3, (E)-4-[2-(3,5-dihydroxyphenyl)ethenyl]1,2-benzediol]

IC50 (ADAMTS-4 (aggrecanase-1) [7]): 50 µM
IC50 (ADAMTS-4 (aggrecanase-1) [8]): > 100 µM
Compound: Oc1ccc(/C=C/c2cc(O)cc(O)c2)cc1 [Compound 4, 5-[(1E)-2-(4-hydroxyphenyl)ethenyl]-1,3-benzenediol]
inhibition of MMP-2 (MMP-2 [2]; prior study): not an inhibitor
inhibition of MMP-9 (MMP-9 [3]; prior study): not an inhibitor

IC50 (ADAMTS-4 (aggrecanase-1) [7]): > 100 µM
IC50 (ADAMTS-4 (aggrecanase-1) [8]): > 100 µM
Compound: C(=C\c1ccccc1)/c1ccccc1 [Compound 5, trans-1,2-diphenylethylene]

IC50 (ADAMTS-4 (aggrecanase-1) [7]): ~100 µM
IC50 (ADAMTS-4 (aggrecanase-1) [8]): > 100 µM
Compound: C(=C/c1ccccc1)/c1ccccc1 [Compound 6, cis-1,2-diphenylethylene]

IC50 (ADAMTS-4 (aggrecanase-1) [7]): 20 µM
IC50 (ADAMTS-4 (aggrecanase-1) [8]): > 100 µM
Compound: COc1ccc(/C=C/c2cc(O)cc(OC3OC(CO)C(O)C(O)C3O)c2)cc1 (stereo not shown) [Compound 7, 2-[3-hydroxy-5-[(E)-2-(4-methoxyphenyl)ethenyl]phenoxy]-6-(hydroxymethyl)oxane-3,4,5-triol]

IC50 (ADAMTS-4 (aggrecanase-1) [7]): 50 µM
IC50 (ADAMTS-4 (aggrecanase-1) [8]): > 100 µM
Compound: COc1ccc(C=Cc2cc(O)cc(OC3OC(CO)C(O)C(O)C3O)c2)cc1O (stereo not shown) [Compound 8, 2-[3-hydroxy-5-[2-(3-hydroxy-4-methoxyphenyl)ethenyl]phenoxy]-6-(hydroxymethyl)oxane-3,4,5-triol]

IC50 (ADAMTS-4 (aggrecanase-1) [7]): 20 µM
IC50 (ADAMTS-4 (aggrecanase-1) [8]): > 100 µM
Compound: Oc1ccccc1O [Compound 9, 1,2-dihydroxybenzene]

inhibition of substrate hydrolysis by fluorescence analysis (ADAMTS-5 [9]; ADAMTS-5, data not shown): inhibited
Ki (ADAMTS-5 [9]; Ki, ADAMTS-5, substrate fTSSshort, apparent Ki): 36.9 ± 8.82 µM
inhibition of substrate hydrolysis by RP-HPLC analysis (ADAMTS-5 [5]): inhibited
Ki (MMP-2 [6]; MMP-2, substrate fMMPSshort): 11.3 ± 0.52 µM
Ki (MMP-8 [10]): 10.3 ± 0.94 µM
Ki (MMP-9 [11]): 8.29 ± 0.63 µM
Ki (MMP-12 [12]): 34.4 ± 3.99 µM
Compound: Oc1cccc(O)c1O [Compound 10, 1,2,3-trihydroxybenzene]

Compound: O=c1cc(-c2ccc(O)cc2)oc2cc(O)cc(O)c12 [apigenin]
EC50 (MMP-2 [13]): 7.5 µM
IC50 (MMP-1 [14]): > 100 µM

Compound: O=c1c(O)c(-c2ccc(O)cc2)oc2cc(O)cc(O)c12 [kaempferol]
IC50 (MMP-1 [14]): 43.7 µM

Compound: O=c1cc(-c2ccc(O)c(O)c2)oc2cc(O[C@@H]3O[C@H](CO)[C@@H](O)[C@H](O)[C@H]3O)cc(O)c12 [luteolin-7-O-glucoside]
EC50 (MMP-9 [15]; MMP-9): 4.6 µM

Compound: O=c1cc(-c2ccc(O)c(O)c2)oc2cc(O)cc(O)c12 [luteolin]
Ki (MMP-9 [15]; MMP-9, noncompetitive mechanism): 5.4 µM

Compound: O=c1c(O)c(-c2ccc(O)c(O)c2)oc2cc(O)cc(O)c12 [quercetin]
IC50 (MMP-1 [14]): 39.6 µM

Compound: (Gly-Pro-Hyp)5-Gly-Pro-Lys(Mca)-Gly-Pro-Gln-Gly~Leu-Arg-Gly-Gln-Lys(Dnp)-Gly-Val-Arg-(Gly-Pro-Hyp)5-NH2 [fMMPSlong]
Km (MMP-8 [16]): 7.6 µM
Km (MMP-2 [17]): 17.2 µM

Compound: Lys(Fam)-Asp-Val-Gln-Glu-Phe-Arg-Gly-Val-Thr-Ala-Val-Ile-Arg-Lys(Tamra)-Lys-Gly-Lys-NH2 ({Lys(Fam)}-DVQEFRGVTAVIRK(Tamra)KGK-NH2) [fTSS1]
Km (ADAMTS-4 [18]): ~35 µM

Compound: Mca-Lys-Pro-Leu-Gly-Leu-Lys(Dnp)-Ala-Arg-NH2 (Mca-KPLGLK(Dnp)AR-NH2; SMILES COc1ccc2c(CC(=O)N[C@@H](CCCCN)C(=O)N3CCC[C@H]3C(=O)N[C@@H](CC(C)C)C(=O)NCC(=O)N[C@@H](CC(C)C)C(=O)N[C@@H](CCCCNc3ccc([N+](=O)[O-])cc3[N+](=O)[O-])C(=O)N[C@@H](C)C(=O)N[C@@H](CCCNC(=N)N)C(N)=O)cc(=O)oc2c1) [fMMPSshort]
Km (MMP-9 [19]): 27.7 µM
Km (MMP-12 [20]): 130 µM
